Data published in paper PMC5051066, “Pharmacokinetics of calycopterin and xanthmicrol, two polymethoxylated hydroxyflavones with anti-angiogenic activities from Dracocephalum kotschyi Bioss” (DARU Journal of Pharmaceutical Sciences, 2016).
Entries after “also recorded” stand apart in the source; their conditions may differ.

Legend:
HUVEC cell = tested on: HUVEC cell; parameters: method as in PMID 24895220; conditions: at 500 ng/mL; cited from earlier work
Balb/C mice [1] = assay: Toxicological study in mice: body weight, mortality, behaviour, overt toxicity; type: in vivo; conditions: for toxic effects overall (behavioral, histological, biochemical): repeated administrations at administered doses (30, 40 and 50 mg/kg/day for six days)
Experimental: (§1) Toxicity studies were carried out using Balb/C mice in the 25-30 g weight range. Drug administration was via the I.P. methoud. Animals were assigned to five groups of three: one-Control groups which received no treatment, two-Vehicle control which received 60 μL of DMSO (dimethyl sulfoxide) for 6 days, 3- Test group one which received 30 mg/kg body weight xanthomicrol in 60 μL of DMSO per day, 4- Test group two which received 40 mg/kg body weight xanthomicrol on 60 μL of DMSO per day and 5- Test group three which received 50 mg/kg body weight xanthomicrol on 60 μL of DMSO per day. The animals were weighed and examined for changes in skin tone, signs of fur loss and changes in bowl function. On the seventh day, the animals were anaesthetized under an atmosphere of chloroform. Once fully anaesthetized, blood samples were collected from the heart and the animals were killed by cervical dislocation. Serum samples were analyzed for hepatic enzymes AST and ALT [16] and also for creatinin levels. Kidneys, liver, lung, intestines and stomach were removed from animals and placed in 10 % formalin solution for subsequent paraffin embedding, sectioning, staining and histological studies. Tissue sections were examined for fibrotic, inflammatory and vascular changes by a qualified pathologist.

[2] = Predicted plasma concentration-time profiles from the two compartment models; conditions: rat, single I.V. dose of 30 mg/kg, predicted from two compartment model
Experimental: Our aim in this work was to find doses of these flavonoids which could produce such plasma levels over extended periods. […] The models generated, were used to predict the plasma concentration-time profiles for different doses of calycopterin and xanthomicrol (Fig. 7). After a single I.V. dose of 30 mg/kg, xanthomicrol plasma concentration would be greater than 500 ng/mL for more than 6 h while calycopterin’s plasma concentration would dip below 500 ng/mL 30 min after administration.
Fig. 7 Predicted plasma calycopterin (●) and xanthomicrol (○) concentration-time profiles after a single IV bolus dose of 30 mg/kg or either compound in the rat. The values were calculated based upon the two compartment models developed in this work

Balb/C mice [3] = assay: Toxicological study in mice: serum creatinin, ALT, AST (kidney and liver functions); type: in vivo; conditions: for Serum ALT / Serum AST / Serum Creatinin: mice, I.P.
Experimental: as §1

[4] = Pharmacokinetic study after i.v. administration in rats (online SPE HPLC of plasma, two-compartment model); type: in vivo, male Wistar rats; conditions: for t1/2 (biological half-life) / K12 (rate constant of transfer from the peripheral compartment into the central compartment) / K21 (rate constant of transfer from the central compartment into the peripheral compartment) / half-life / C0 / clearance / k el / Vd: i.v. bolus, 20 mg/kg; for t1/2 (biological half-life) / half-life / C0 / clearance / k el / Vd: plasma; for K12 (rate constant of transfer from the peripheral compartment into the central compartment) / K21 (rate constant of transfer from the central compartment into the peripheral compartment) / C0 / clearance / k el / Vd: two-compartment model; for half-life / C0 / clearance / k el / Vd: male, Wistar, rat, iv; for half-life: read-out: t1/2 (biological half-life) (converted); for C0: read-out: C0 (initial plasma concentration); for clearance: read-out: Cla (clearance rate of the central compartment) (converted); for k el: read-out: Kel (rate constant of elimination from the central compartment) (converted); for Vd: read-out: Vc (volume of distribution of the central compartment)
Experimental: Confirmation of calycopterin, xanthomicrol and circimaritin identity was carried out using HPLC analysis of purified compound compared to the material obtained from previous work and also IR spectroscopy. A HPLC method with online solid phase extraction was developed for the analysis of xanthomicrol and calycopterin in biological fluids (Fig. 1) using circimaritin as internal standard (IS). 100 μL of plasma and 10 μL of 500 μg/mL IS were mixed in a 2 mL microcentrifuge tube. 40 μL of 10 mg/mL ZnSO4 was added to the tube and the content was mixed. After addition of 200 μL acetonitrile, the tube was placed in an orbital shaker for 10 min. The samples were subsequently centrifuged at 14000 g for 10 min the supernatant was subjected to online extraction/HPLC analysis as follows:
At the start of every run, the sample injection valve and the sample extraction valve were switched to load position (Fig. 1). 250 μL of sample was injected into the sample loop of the sample injection valve. The valve was switched to the inject position which diverted the flow from the online SPE (solid phase extraction) solvent delivery pump (500 μL/min) through the sample loop which in turned carried the sample onto the online SPE column (3×15mm, ODS-2, 5 μm). After 2 min, the sample extraction valve was switched to inject position. This allowed the mobile phase from the analysis solvent delivery pump (1 mL/min) to wash any material retained by the online SPE system, onto the analytical column (4.6×150mm, ODS-2, 5 μm, Tracer Excell, Technochroma, Spain) for separation and measurement. The mobile phase pumped by online SPE solvent delivery pump consisted of acetonitrile:water (35:65) and the mobile phase pumped by the analysis solvent delivery pump was composed of acetonitrile:methanol:water:triethylamine (37:24:38.5:0.5). 16 min after the start of analysis, the mobile phase pumped by the analysis solvent delivery pump was switched to methanol:tetrahydrofurane:dichloromethane (80:10:10) for 3 min. This allowed for highly non-polar compounds retained by the SPE and analytical column to be flushed. Detection was at 263 nm.
All procedures involving animals were carried out after the approval and under the supervision of the Ethics Committee for Animal Expreiments of Iran University for Medical Sciences. In order to be able to withdraw blood samples at predefined time points during pharmacokinetic studies, femoral vein of male Wistar rats, in the weight range of 280 to 300 g, were catheterized, under anaesthesia, using the method described by Jespersen et al.. After the placement of the catheter, the animals were allowed to recover for 24 h, during which time, the rats were checked for signs of bleeding and the catheters were checked for patency.
Xanthomicrol or calycopterin was dissolved in 200 μL of dimethylsulfoxide (DMSO) and injected into the dorsal tail vein of rats. Just before drug injection (time zero) and at 1, 5, 10, 20, 60, 120 and 240 min after drug injection, 300 μL of blood were withdrawn via the femoral vein which had been catheterized previously. In order to prevent phlebotomy induced hypovolemia, 200 μL normal saline was injected via the femoral catheter after each blood sample withdrawal. Blood samples were centrifuged at 4 °C for 10 min at 4000 g. Plasma was collected and stored frozen at -80 °C until needed.
Pharmacokinetic parameters obtained from constructing the residual concentration verses time curve for these two-compartmental models are presented in Table 3. Rate constants for transfer between the central and peripheral compartments (K21and K12) and also the elimination process (Kel) were also calculated.

[5] = Solubility in water based solvent systems (vehicle selection); type: physicochemical
Experimental: A number of solvents which were able to dissolve xanthomicrol and calycopterin were investigated as vehicles for the delivery of these compounds into the blood stream. DMSO was chosen as it is relatively benign in terms of toxicological effects (a number of drug formulations or medical devices containing DMSO are marketed e.g., RIMSO-50 from Bioniche Pharma, USA and Dolicur from Schering, Germany). Also, the volume required as vehicle (200 μL) was small compared to total blood volume in rat (about 20 mL) and would be unlikely to have an appreciable effect on pharmacokinetics of flavonoids being studied.

Balb/C mice [6] = assay: Toxicological study in mice: tissue histology; type: in vivo
Experimental: as §1

[7] = mice, 30, 40 and 50 mg/kg/day for six days
[8] = mice, 30, 40 or 50 mg/kg body weight
[9] = Test group 1 (30 mg/kg per day, I.P.), Lung/Liver/Heart/ Kidney, single animal
[10] = Test group 1 (30 mg/kg per day, I.P.), Small intestine/ Large intestine/ Gastric wall, single animals
[11] = Test group 2 (40 mg/kg per day, I.P.), Lung/Liver/Heart/ Kidney, single animals, listed as xanthimcrol, 40 mg/kg/day
[12] = Test group 2 (40 mg/kg per day, I.P.), Small intestine/ Large intestine/ Gastric wall, single animal
[13] = Test group 3 (50 mg/kg per day, I.P.), Lung/Liver/Heart/ Kidney, single animals
[14] = Test group 3 (50 mg/kg per day, I.P.), Lung/Liver/Heart/ Kidney, single animals, listed as xanthimcrol, 50 mg/kg/day
[15] = Test group 3 (50 mg/kg per day, I.P.), Small intestine/ Large intestine/ Gastric wall, single animal

For `COc1c(OC)c(O)c2c(=O)cc(-c3ccc(O)cc3)oc2c1OC` [Xanthomicrol, xanthomicrol], the “effect on capillary-like tube formation” value (HUVEC cell) is listed as “inhibited capillary-like tube formation”, the “change in animal weights compared to control group” value (Balb/C mice [1]; [7]) is listed as “no change in animal weights” and the “motor or behavioral abnormalities” value (Balb/C mice [1]; [7]) is listed as “no animal showed any signs of motor or behavioral abnormalities”. For the same molecule, the “toxic effects overall (behavioral, histological, biochemical)” value (Balb/C mice [1]; mice) was “did not appear to have toxic effects”, the “toxic effects overall (behavioral, histological, biochemical)” value (Balb/C mice [1]; mice, listed as xanthomicrol) was “failed to show any behavioral, histological and biochemical adverse effects” and the weight of animals (Balb/C mice [1]; mice, xanthomicrol groups, control group 27.1 g ± 1.2) was 27.7 ± 1.7 g. The acute toxic effects (Balb/C mice [1]; mouse, in vivo) was “appears not to have acute toxic effects”, the “time for which plasma concentration would be greater than 500 ng/mL” value [2] was “more than 6 h” and the “difference in alanine transaminase (ALT) activity between control, vehicle and test groups” value (Balb/C mice [3]; [8]) was “no significant differences”. For the same molecule, the “difference in aspartic acid transaminase (AST) activity between control, vehicle and test groups” value (Balb/C mice [3]; [8]) was “no significant differences; also recorded: not significantly different”, the “difference in serum creatinin content between control, vehicle and test groups” value (Balb/C mice [3]; [8]) was “no significant differences” and the “Serum ALT” value (Balb/C mice [3]; 30 mg/kg per day for 6 days) was 38 ± 8.8 IU/L. For the same molecule, the “Serum AST” value (Balb/C mice [3]; 30 mg/kg per day for 6 days) was 138 ± 37 IU/L, the “Serum ALT” value (Balb/C mice [3]; 40 mg/kg per day for 6 days) was 22 ± 19 IU/L and the “Serum AST” value (Balb/C mice [3]; 40 mg/kg per day for 6 days) was 130 ± 49 IU/L. The Serum Creatinin (Balb/C mice [3]; 40 mg/kg per day for 6 days) was 0.35 ± 0.036 mg/dL, the “Serum ALT” value (Balb/C mice [3]; 50 mg/kg per day for 6 days) was 30 ± 3.0 IU/L and the “Serum AST” value (Balb/C mice [3]; 50 mg/kg per day for 6 days) was 316 ± 163 IU/L. The Serum Creatinin (Balb/C mice [3]; 50 mg/kg per day for 6 days) was 0.39 ± 0.02 mg/dL, the “t1/2 (biological half-life)” value [4] was 4.2 h and the “K12 (rate constant of transfer from the peripheral compartment into the central compartment)” value [4] was 1.88 h⁻¹. The “K21 (rate constant of transfer from the central compartment into the peripheral compartment)” value [4] was 0.46 h⁻¹, the half-life [4] was about 4 h and the C0 [4] was 2340 ng/mL. The clearance [4] was 30 mL/min, the k el [4] was 5.83e-05 s⁻¹ and the Vd [4] was 8.5 L. The “solubility in water based solvent systems” value [5] was “do not dissolve in water based solvent systems”, the Fibrosin (Balb/C mice [6]; [9]) was “Absent” and the Inflammation structural change (Balb/C mice [6]; [9]) was “Absent”. The “Notes (histology)” value (Balb/C mice [6]; [9]) was “Normal”, the Vascular change (Balb/C mice [6]; [9]) was “None” and the Fibrosin (Balb/C mice [6]; [10]) was “Absent”. For the same molecule, the Inflammation structural change (Balb/C mice [6]; [10]) was “Absent”, the “Notes (histology)” value (Balb/C mice [6]; [10]) was “Normal” and the Vascular change (Balb/C mice [6]; [10]) was “None”. For the same molecule, the Fibrosin (Balb/C mice [6]; Test group 2 (40 mg/kg per day, I.P.), Lung/Liver/Heart/ Kidney, single animals) was “Absent”, the Inflammation structural change (Balb/C mice [6]; [11]) was “Lymphocyte infilteration in lung sample, Subcapsular inflammation in liver sample; also recorded: Focal inflammation in lung tissue” and the “Notes (histology)” value (Balb/C mice [6]; [11]) was “Normal; also recorded: Increased type II pneumocytes”. For the same molecule, the Vascular change (Balb/C mice [6]; [11]) was “Hypermic; also recorded: Increased vascularization in lung sample”, the Fibrosin (Balb/C mice [6]; [12]) was “Absent” and the Inflammation structural change (Balb/C mice [6]; [12]) was “Absent”. The “Notes (histology)” value (Balb/C mice [6]; [12]) was “Normal”, the Vascular change (Balb/C mice [6]; [12]) was “None” and the Fibrosin (Balb/C mice [6]; [13]) was “Absent”. For the same molecule, the Vascular change (Balb/C mice [6]; [13]) was “None”, the Inflammation structural change (Balb/C mice [6]; [14]) was “Focal inflammation in lung sample; also recorded: Absent” and the “Notes (histology)” value (Balb/C mice [6]; [14]) was “Increased type II pneumocytes; also recorded: Normal”. The Fibrosin (Balb/C mice [6]; [15]) was “Absent”, the Inflammation structural change (Balb/C mice [6]; [15]) was “Absent” and the Vascular change (Balb/C mice [6]; [15]) was “None”. The “Histological examination of tissue samples compared to the control group” value (Balb/C mice [6]; [7]) was “absence of significant pathological change; also recorded: unable to find xenobiotic induced damage to vital organs”.
In the case of `COc1c(OC)c(O)c2c(=O)c(OC)c(-c3ccc(O)cc3)oc2c1OC` [Calycopterin, calycopterin], the “effect on capillary-like tube formation” value (HUVEC cell) is given as “inhibited capillary-like tube formation”, the “time after administration at which plasma concentration would dip below 500 ng/mL” value [2] is given as 30 min and the “volume of distribution of calycopterin relative to xanthomicrol” value ([4]; i.v.) is given as “about 8 times”. For the same molecule, the “t1/2 (biological half-life)” value [4] was 3.8 h, the “K12 (rate constant of transfer from the peripheral compartment into the central compartment)” value [4] was 1.39 h⁻¹ and the “K21 (rate constant of transfer from the central compartment into the peripheral compartment)” value [4] was 0.52 h⁻¹. For the same molecule, the half-life [4] was about 4 h, the C0 [4] was 312 ng/mL and the clearance [4] was 280 mL/min. For the same molecule, the k el [4] was 7.22e-05 s⁻¹, the Vd [4] was 63.9 L and the “solubility in water based solvent systems” value [5] was “do not dissolve in water based solvent systems”.
